The series has as its system 4T1-luc tumor models. In words: In vivo bioluminescence/fluorescence imaging and kinetics in luciferase-expressing tumor models. Conditions: mice, 150 mg/kg luciferin solution.

Bounds are passed on as bounds.

Description: All the cell lines were modified for the luciferase reporter gene expression.
Trypsinization was stopped with medium containing 10% FBS. The cells were centrifuged, and the floating cells in the supernatant were discarded. The cell pellet was resuspended in medium containing 10% FBS and mixed thoroughly. Trypan blue staining was used to determine the number of viable cells. The resuspended cells were centrifuged, and cell dilutions of 2±10^6 cells/100 μl were prepared in growth medium. The 100 μl of cell suspension was injected subcutaneously into the right flank area of each mouse. The mice were randomized into control and treatment groups when xenografts were palpable with a tumor size of 50 mm^3.
The orthotopic tumor model was used to mimic the cancer in humans in athymic nu/nu mice (6-week old). […] Only cell suspensions of >90% viability, as determined by trypan blue exclusion, were used. […]
Nu/Nu mice were anesthetized and tumor cells (2 million per mouse) were injected via tail vein. Only cell suspensions of >90% viability, as determined by trypan blue exclusion, were used. […]
Imaging was performed with an IVIS Spectrum (16). Bioluminescent signals were quantified using Living Image® software (Caliper Life Sciences., Alameda, CA.).
Imaging was performed with an IVIS SpectrumCT (35). Bioluminescent signals were quantified using Living Image® software (Caliper Life Sciences., Alameda, CA.).

Take `O=C(O)[C@H]1CSC(c2nc3ccc(O)cc3s2)=N1` [Free luciferin, luciferin]: the “time to clearance from circulation” value is listed as at most 60 min.

The values are drawn from US12144872B1, “Modified nanodelivery system and method for enhanced in vivo medical and preclinical imaging” (Florida A&M University, priority 2012, dated 2024).
